This note sets out measurements from patent US20230241233A1, “ORAL PHARMACEUTICAL COMPOSITIONS COMPRISING LIPID CONJUGATES” (UNIVERSITAT HEIDELBERG, priority 2020, published 2023).

Series [1] is described as follows: Pharmacokinetic evaluation of octreotide lipid conjugate in beagle dogs (Charles River Study No 47656 PAC). The following applies: dog, plasma, conjugate dose 0 mg, oral gavage octreotide 0.12 mg/kg, vs iv bolus 0.01 mg/kg, read-out: abs. bioavailability. It is filed as in vivo. As for the experimental part:
Between the cycles, a washout phase of one week was performed.
First, animals received an intravenous bolus injection of 0.01 mg/kg octreotide. The consecutive administrations were given orally by gavage. After a wash-out of one week animals #1 and #2 received 0.12 mg/kg free octreotide and animals #3 and #4 received 0.12 mg/kg octreotide with 0.3 mg/kg lipid-conjugate. After a wash-out of one week animals #1 and #2 received 0.12 mg/kg free octreotide with 1 mg/kg lipid-conjugate and animals #3 and #4 received 0.12 mg/kg octreotide with 3 mg/kg lipid-conjugate. After a wash-out of one week animals #1 and #2 received 0.12 mg/kg free octreotide with 10 mg/kg lipid-conjugate and animals #3 and #4 received 0.12 mg/kg octreotide with 30 mg/kg lipid-conjugate. After a wash-out of one week animals #1 and #2 received 0.012 mg/kg free octreotide with 1 mg/kg lipid-conjugate and animals #3 and #4 received 1.2 mg/kg octreotide with 1 mg/kg lipid-conjugate.

A short description of series [2]: Bioavailability of octreotide SEDDS formulation in beagle dogs. As to conditions: dog, plasma, oral, 1.5 mg/animal.
Procedure: The administration of octreotide in SEDDS formulation was investigated in a study in beagle dogs at Charles River, Evreux, France (Study No 47656 PAC and 48482 PAC). […] Animals were treated with octreotide in SEDDs formulation, or octreotide alone, prepared in citrate buffer (100 mM, pH 5.5), by single oral administration via gavage. For determination of the absolute bioavailability plasma concentrations after intravenous bolus injection (in PBS) were determined. Between the cycles, a wash-out phase of one week was performed.
Plasma concentrations of all investigated peptide therapeutics were determined by quantification using a validated UPLC-MS/MS assay (according to the pertinent recommendations for bioanalytical method development of the US FDA and EMA). All assays were performed on a Waters Xevo TQ-XS triple quadrupole tandem mass spectrometer coupled to a Waters Acquity classic UPLC using C18 columns, heated electrospray ionization (ESI), and selected ion monitoring in the positive ion mode.

Structures are written as SMILES.

Consider `C[C@@H](O)[C@@H]1NC(=O)[C@H](CCCCN)NC(=O)[C@@H](Cc2c[nH]c3ccccc23)NC(=O)[C@H](Cc2ccccc2)NC(=O)[C@@H](NC(=O)[C@H](N)Cc2ccccc2)CSSC[C@@H](C(=O)N[C@H](CO)[C@@H](C)O)NC1=O` [octreotide], for which the bioavailability in series [1] and in series [2] was 2.1% throughout.

The term bioavailability denotes the share of a dose that reaches the circulation, judged against a reference dose that is usually intravenous.
